In US20250268253A1, “MULTIFUNCTIONAL NATURAL PROTECTANT SYSTEMS WITH HYDROXYACETOPHENONE” (BARENTZ NORTH AMERICA, LLC, priority 2021, published 2025):

Experiments:
mixture of bacteria = assay: CTFA Preservative Challenge Test in shampoo, mixed bacteria; format: cell-based; details: for concentration of the component alone required to yield 100% retardation (Qa, Qb): percent by weight in shampoo, plate count <10 cfu/g after 7 days; for Day 7 Count Mixed Bacteria: shampoo containing the sample, initial count 4×10^6 cfu/mL, surviving organisms on day 7
Protocol: (§1) The CTFA Preservative Challenge Test was performed on a shampoo containing the samples below against a mixture of fungi (C. albicans (ATCC #10231) and A. brasiliensis (ATCC #16404)) having an initial count of 7.9×10^5 cfu/mL or a mixture of bacteria having an initial count of 4×10^6 cfu/mL. The shampoos inoculated with bacteria were allowed to stand for 14 days and the shampoos inoculated with fungi were allowed to stand for 7 days. The samples were evaluated for surviving organisms on day 7 for fungi-innoculated shampoos and days 7 and 14 for bacteria-innoculated shampoos.
From the table, synergism for the combinations above against mixed bacteria in shampoo was calculated by the method described in C. E. Kull et al., “Mixtures of Quaternary Ammonium Compounds and Long-chain Fatty Acids as Antifungal Agents”, Applied Microbiology, 9:538-541 (1961). The synergism value (QA/Qa+QB/Qb) was determined. […] Qa is the concentration of the first component alone (in percent by weight) required to yield 100% retardation of the bacteria or fungi. Qb is the concentration of the second component alone (in percent by weight) required to yield 100% retardation of the bacteria or fungi. […] Values for (QA/Qa+QB/Qb) of 1 and greater represent an additive effect and an antagonistic effect, respectively.

[1] = test system: mixture of fungi (C. albicans (ATCC #10231) and A. brasiliensis (ATCC #16404)); assay: CTFA Preservative Challenge Test in shampoo, mixed fungi; format: cell-based; details: shampoo containing the sample; initial count 7.9×10^5 cfu/mL; surviving organisms on day 7
Protocol: as §1
From the table, synergism for the combinations above against mixed bacteria in shampoo was calculated by the method described in C. E. Kull et al., “Mixtures of Quaternary Ammonium Compounds and Long-chain Fatty Acids as Antifungal Agents”, Applied Microbiology, 9:538-541 (1961). The synergism value (QA/Qa+QB/Qb) was determined. […] Qa is the concentration of the first component alone (in percent by weight) required to yield 100% retardation of the bacteria or fungi. Qb is the concentration of the second component alone (in percent by weight) required to yield 100% retardation of the bacteria or fungi. When the value of (QA/Qa+QB/Qb) is less than one, the mixture is synergistic. Values for (QA/Qa+QB/Qb) of 1 and greater represent an additive effect and an antagonistic effect, respectively. […]

Row | Compound | concentration of the component alone required to yield 100% retardation (Qa, Qb) (mixture of bacteria) [%] | Day 7 Count Mixed Bacteria (mixture of bacteria) | Day 7 Count Mixed Fungi [1]
1 | CC(=O)c1ccc(O)cc1 [0.35% hydroxyacetophenone, 4-hydroxyacetophenone] | > 0.35 | 3.2 × 10^2 cfu/mL | 1.5 × 10^2 cfu/mL
2 | OCCCO [5% 1,3-propanediol, 1,3-propanediol] | > 5 | 5.2 × 10^2 cfu/mL | 9.2 × 10^2 cfu/mL
